What was measured:
E. coli leader peptidase = E. coli leader peptidase (Escherichia coli, UniProt P00803); conditions: cited from earlier work
Decanoyl-[…]OH = biological target: T1, Decanoyl-[…]OH
T1 chain: LTPTAKAASKIDD

Octanoyl-[…]OH = biological target: T2, Octanoyl-[…]OH
T2 chain: LTPTAKAASKIDD

Sequence of E. coli leader peptidase (P00803 whole entry): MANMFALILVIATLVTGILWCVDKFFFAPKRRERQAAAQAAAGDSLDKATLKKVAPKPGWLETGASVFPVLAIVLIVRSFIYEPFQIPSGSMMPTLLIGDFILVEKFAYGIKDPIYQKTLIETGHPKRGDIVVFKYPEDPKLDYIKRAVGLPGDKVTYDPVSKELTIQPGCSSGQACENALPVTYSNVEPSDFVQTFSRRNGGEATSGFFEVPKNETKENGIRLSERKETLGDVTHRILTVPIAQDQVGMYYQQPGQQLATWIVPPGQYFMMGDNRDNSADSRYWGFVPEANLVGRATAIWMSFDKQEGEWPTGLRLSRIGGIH

ASVAVATLVPMLSFAAEGDDPAK
rate of cleavage (E. coli leader peptidase; versus parent M13 procoat protein, Dierstein and Wickner): comparable to that of the parent

ALAKI
rate of turnover (E. coli leader peptidase; Dev et al): very slow

B1: S. aureus SpsB signal peptidase (protein)
chain: MKKELLEWIISIAVAFVILFIVGKFIVTPYTIKGESMDPTLKDGERVAVNIIGYKTGGLEKGNVVVFHANKNDDYVKRVIGVPGDKVEYKNDTLYVNGKKQDEPYLNYNLKHKQGDYITGTFQVKDLPNANPKSNVIPKGKYLVLGDNREVSKDSRAFGLIDEDQIVGKVSFRFWPFSEFKHNFNPENTKN
processing after 30 minutes (HPLC/MS cleavage assay) (Decanoyl-[…]OH): >80% processing after 30 minutes
processing after 30 minutes (HPLC/MS cleavage assay) (Octanoyl-[…]OH): >80% processing after 30 minutes

— US20040024178A1, “Bacterial signal peptidase inhibitors and uses thereof” (priority 1999, published 2004)
